Laboratory results published in patent US20160045614A1, “TARGETED LIPOSOMAL COMPOSITION USING ANTI-HER-2 AFFIBODY MOLECULES AND APPLICATIONS THEREOF IN CANCER TREATMENT” (priority 2014, published 2016).

Experiments:
TUBO tumor = experiment: In vivo chemotherapy study, TUBO tumor model; design: species or system female BALB/c mice; conditions: 15 mg/kg; possibly acute cardiac toxicity
Method: All animal experiments were conducted in compliance with the Institutional Ethical Committee and Research Advisory Committee of Mashhad University of Medical Sciences guidelines. On day 0, female BALB/c mice, aged 4-6 weeks, were given subcutaneous injections of TUBO tumor cells (5×10^5 cells per mouse) in the right flank. On day 14, tumor bearing mice with palpable size received medication via a single tail vein injection of either dextrose 5% solution as negative control or doxorubicin at 15 mg/kg encapsulated in liposomes. Mice were weighed and tumor sizes were monitored within 60 days post-injection and the experiment was terminated for those mice that felt so unwell. Kaplain-Meier event free survival probability curve was obtained for each experimental group.

[1] = test system: SKBR3, TUBO and MDA-MB231 Cells; experiment: Cytotoxicity study, MTS assay; assay type: cell-based; conditions: 1 and 3 hours incubation, then 72 hours; FIG. 4
Method: The anti-proliferative effects of prepared liposomes containing Dox were assessed on SKBR3, TUBO and MDA-MB231 Cells using MTS assay (Promega). For this purpose, the cells were seeded at 5000 cells/well in 96 well plates. After overnight incubation, the medium was replaced with an FCS-free medium containing 1:2 serial dilutions of liposomal Dox or free Dox for scheduled incubation times (1 and 3 hours) at 37° C. The cells were washed gently in PBS and further incubated in the free drugs medium at 37° C. for 72 hours. The viability of cells was determined using a Promega MTS kit. Then, the IC50 of formulations were calculated.

In the case of `COc1cccc2c1C(=O)c1c(O)c3c(c(O)c1C2=O)C[C@@](O)(C(=O)CO)C[C@@H]3O[C@H]1C[C@H](N)[C@H](O)[C@H](C)O1.Cl` [Dox, doxorubicin hydrochloride], the “survival of the group under conventional Dox treatment” value (TUBO tumor) is reported as “died in early days” and the “cytotoxicity (IC50) on HER2+ cell lines SKBR3 and TUBO against HER2− cell line MDA-MB-231” value [1] is reported as “no distinguishing difference between cytotoxicity of HER2^+ and HER2^− cells”.
